From PubChem BioAssay AID1918940 (Molecular Pharmacology Branch, DTP, NCI, 2023)

Test system: NCI-H211 complex spheroid viability
Assay: Anticancer human tumor NCI-H211 cell line growth inhibition [LSD1];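 further: luminescent viability read after seven days of drug exposure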;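 on viability, T/C: 100% = DMSO vehicle control viability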
Conditions: for IC50: curve of first compound; for viability, T/C: stronger effect = lower value
Procedure, shortened: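 Complex spheroids of tumor cells with HUVEC and human MSCs, exposed to iadademstat combined with other agents. Each agent tested in half-log steps from near clinical Cmax (else 10 microM top), DMSO ≤0.25%.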

[1] = second compound 0.1 µM, first compound 0.00949 µM
[2] = second compound 0.1 µM, first compound 0.03 µM
[3] = second compound 0.1 µM, first compound 0.0949 µM
[4] = second compound 0.1 µM, first compound 0.3 µM
[5] = second compound 0.316 µM, first compound 0.00949 µM
[6] = second compound 0.316 µM, first compound 0.03 µM
[7] = second compound 0.316 µM, first compound 0.0949 µM
[8] = second compound 0.316 µM, first compound 0.3 µM
[9] = second compound 1 µM, first compound 0.00949 µM
[10] = second compound 1 µM, first compound 0.03 µM
[11] = second compound 1 µM, first compound 0.0949 µM
[12] = second compound 1 µM, first compound 0.3 µM
[13] = second compound 3.16 µM, first compound 0.00949 µM
[14] = second compound 3.16 µM, first compound 0.03 µM
[15] = second compound 3.16 µM, first compound 0.0949 µM
[16] = second compound 3.16 µM, first compound 0.3 µM
[17] = second compound 10 µM, first compound 0.00949 µM
[18] = second compound 10 µM, first compound 0.03 µM
[19] = second compound 10 µM, first compound 0.0949 µM
[20] = second compound 10 µM, first compound 0.3 µM

Structure (SMILES): CCN(c1cc(-c2ccc(CN3CCOCC3)cc2)cc(C(=O)NCc2c(C)cc(C)[nH]c2=O)c1C)C1CCOCC1 + NC1CC1c1ccc(-c2cccc(O)c2)cc1
- IC50 (second compound 0.1 µM): 205 nM
- IC50 (second compound 0.316 µM): 69.4 nM
- IC50 (second compound 1 µM): 114 nM
- IC50 (second compound 3.16 µM): 127 nM
- IC50 (second compound 10 µM): 139 nM
- viability, T/C [1]: 74.4%
- viability, T/C [2]: 62.2%
- viability, T/C [3]: 61.3%
- viability, T/C [4]: 43.7%
- viability, T/C (second compound 0.1 µM, first compound 0.949 µM): 41%
- viability, T/C (second compound 0.1 µM, first compound 3 µM): 40.9%
- viability, T/C [5]: 84%
- viability, T/C [6]: 67.3%
- viability, T/C [7]: 42.7%
- viability, T/C [8]: 48.8%
- viability, T/C (second compound 0.316 µM, first compound 0.949 µM): 46.5%
- viability, T/C (second compound 0.316 µM, first compound 3 µM): 36.3%
- viability, T/C [9]: 83.4%
- viability, T/C [10]: 48.5%
- viability, T/C [11]: 65.8%
- viability, T/C [12]: 38.1%
- viability, T/C (second compound 1 µM, first compound 0.949 µM): 38.4%
- viability, T/C (second compound 1 µM, first compound 3 µM): 30.3%
- viability, T/C [13]: 79.3%
- viability, T/C [14]: 58.7%
- viability, T/C [15]: 50.5%
- viability, T/C [16]: 46.3%
- viability, T/C (second compound 3.16 µM, first compound 0.949 µM): 38.8%
- viability, T/C (second compound 3.16 µM, first compound 3 µM): 27.4%
- viability, T/C [17]: 70.3%
- viability, T/C [18]: 58.6%
- viability, T/C [19]: 46.6%
- viability, T/C [20]: 51.7%
- viability, T/C (second compound 10 µM, first compound 0.949 µM): 40.8%
- viability, T/C (second compound 10 µM, first compound 3 µM): 32.1%

Structure (SMILES): Cn1ncnc1C1c2n[nH]c(=O)c3cc(F)cc(c23)NC1c1ccc(F)cc1 (stereo not given) + NC1CC1c1ccc(-c2cccc(O)c2)cc1
- IC50 (second compound 0.1 µM): 1.85 nM
- IC50 (second compound 0.316 µM): 1.66 nM
- IC50 (second compound 1 µM): 1.05 nM
- IC50 (second compound 3.16 µM): 1.08 nM
- IC50 (second compound 10 µM): 1.02 nM
- viability, T/C (second compound 0.1 µM, first compound 0.000316 µM): 64.8%
- viability, T/C (second compound 0.1 µM, first compound 0.001 µM): 65.8%
- viability, T/C (second compound 0.1 µM, first compound 0.00316 µM): 36.7%
- viability, T/C (second compound 0.1 µM, first compound 0.01 µM): 6.78%
- viability, T/C (second compound 0.1 µM, first compound 0.0316 µM): 5.16%
- viability, T/C (second compound 0.1 µM, first compound 0.1 µM): 5.28%
- viability, T/C (second compound 0.316 µM, first compound 0.000316 µM): 79.3%
- viability, T/C (second compound 0.316 µM, first compound 0.001 µM): 66.8%
- viability, T/C (second compound 0.316 µM, first compound 0.00316 µM): 28.5%
- viability, T/C (second compound 0.316 µM, first compound 0.01 µM): 6.02%
- viability, T/C (second compound 0.316 µM, first compound 0.0316 µM): 5.46%
- viability, T/C (second compound 0.316 µM, first compound 0.1 µM): 4.84%
- viability, T/C (second compound 1 µM, first compound 0.000316 µM): 51.5%
- viability, T/C (second compound 1 µM, first compound 0.001 µM): 51.6%
- viability, T/C (second compound 1 µM, first compound 0.00316 µM): 23.6%
- viability, T/C (second compound 1 µM, first compound 0.01 µM): 6.16%
- viability, T/C (second compound 1 µM, first compound 0.0316 µM): 4.68%
- viability, T/C (second compound 1 µM, first compound 0.1 µM): 4.9%
- viability, T/C (second compound 3.16 µM, first compound 0.000316 µM): 71.6%
- viability, T/C (second compound 3.16 µM, first compound 0.001 µM): 50.8%
- viability, T/C (second compound 3.16 µM, first compound 0.00316 µM): 26%
- viability, T/C (second compound 3.16 µM, first compound 0.01 µM): 6.88%
- viability, T/C (second compound 3.16 µM, first compound 0.0316 µM): 5.03%
- viability, T/C (second compound 3.16 µM, first compound 0.1 µM): 5.16%
- viability, T/C (second compound 10 µM, first compound 0.000316 µM): 48.5%
- viability, T/C (second compound 10 µM, first compound 0.001 µM): 52.2%
- viability, T/C (second compound 10 µM, first compound 0.00316 µM): 19.9%
- viability, T/C (second compound 10 µM, first compound 0.01 µM): 6.25%
- viability, T/C (second compound 10 µM, first compound 0.0316 µM): 5.22%
- viability, T/C (second compound 10 µM, first compound 0.1 µM): 4.95%

Structure (SMILES): Nc1ncn(C2CC(O)C(CO)S2)c(=O)n1 (stereo not given) + NC1CC1c1ccc(-c2cccc(O)c2)cc1
- IC50 (second compound 0.1 µM): < 0.949 nM
- IC50 (second compound 0.316 µM): < 0.949 nM
- IC50 (second compound 1 µM): < 0.949 nM
- IC50 (second compound 3.16 µM): < 0.949 nM
- IC50 (second compound 10 µM): < 0.949 nM
- viability, T/C (second compound 0.1 µM, first compound 0.000949 µM): 35.2%
- viability, T/C (second compound 0.1 µM, first compound 0.003 µM): 20.8%
- viability, T/C [1]: 9.36%
- viability, T/C [2]: 4.53%
- viability, T/C [3]: 4.25%
- viability, T/C [4]: 5.78%
- viability, T/C (second compound 0.316 µM, first compound 0.000949 µM): 35.8%
- viability, T/C (second compound 0.316 µM, first compound 0.003 µM): 16.6%
- viability, T/C [5]: 8.03%
- viability, T/C [6]: 5.12%
- viability, T/C [7]: 5.19%
- viability, T/C [8]: 5.71%
- viability, T/C (second compound 1 µM, first compound 0.000949 µM): 40.5%
- viability, T/C (second compound 1 µM, first compound 0.003 µM): 17.2%
- viability, T/C [9]: 8.75%
- viability, T/C [10]: 4.16%
- viability, T/C [11]: 4.46%
- viability, T/C [12]: 6.59%
- viability, T/C (second compound 3.16 µM, first compound 0.000949 µM): 31.3%
- viability, T/C (second compound 3.16 µM, first compound 0.003 µM): 15.9%
- viability, T/C [13]: 8.59%
- viability, T/C [14]: 5.64%
- viability, T/C [15]: 5.95%
- viability, T/C [16]: 4.49%
- viability, T/C (second compound 10 µM, first compound 0.000949 µM): 32.3%
- viability, T/C (second compound 10 µM, first compound 0.003 µM): 16.6%
- viability, T/C [17]: 8.49%
- viability, T/C [18]: 6.66%
- viability, T/C [19]: 5.5%
- viability, T/C [20]: 6.65%
